{
  "source": "paper PMC7587962",
  "about": "“Evaluation of Cytotoxicity and α-Glucosidase Inhibitory Activity of Amide and Polyamino-Derivatives of Lupane Triterpenoids” (Molecules, 2020)",
  "origin": "cited, not measured here",
  "conditions_in_all_cases": "standard drugs used by NCI as control; cited from earlier work",
  "key": {"[1]": {"tested_on": "HL-60(TB)"}, "[2]": {"tested_on": "SK-MEL-5", "parameters": "method as in PMID 25405285"}, "[3]": {"tested_on": "SF-268", "parameters": "method as in PMID 25405285"}, "[4]": {"tested_on": "SR", "parameters": "method as in PMID 25405285"}, "[5]": {"tested_on": "PC-3", "parameters": "method as in PMID 25405285"}},
  "data": [
    {"smiles": "COc1cccc2c1C(=O)c1c(O)c3c(c(O)c1C2=O)C[C@@](O)(C(=O)CO)C[C@@H]3O[C@H]1C[C@H](N)[C@H](O)[C@H](C)O1", "note": "[DRB, doxorubicin]", "values": [
      {"measurement": "GI50", "setting": "[1]", "value": 190, "unit": "nM"},
      {"measurement": "GI50", "setting": "[2]", "value": 80, "unit": "nM"},
      {"measurement": "GI50", "setting": "[3]", "value": 100, "unit": "nM"},
      {"measurement": "GI50", "setting": "[4]", "value": 30, "unit": "nM"},
      {"measurement": "GI50", "setting": "[5]", "value": 320, "unit": "nM"}
    ]}
  ]
}
